This is an account of results in patent publication US7294648B2, “Anthranyl derivatives having an anticholecystokinin activity (anti-cck-1), a process for their preparation, and pharmaceutical use thereof” (Rottapharm S.p.A., priority 2002, dated 2007).

In one assay the target is T1, CCK-1 receptors (Rattus norvegicus, UniProt P30551).
T1 construct: The pancreatic acini obtained from the outbred male rat pancreas of the Sprague Dawley strain; from tissue; host or cells: isolated pancreatic acini of male Sprague Dawley rats
T1 sequence (P30551 1-444): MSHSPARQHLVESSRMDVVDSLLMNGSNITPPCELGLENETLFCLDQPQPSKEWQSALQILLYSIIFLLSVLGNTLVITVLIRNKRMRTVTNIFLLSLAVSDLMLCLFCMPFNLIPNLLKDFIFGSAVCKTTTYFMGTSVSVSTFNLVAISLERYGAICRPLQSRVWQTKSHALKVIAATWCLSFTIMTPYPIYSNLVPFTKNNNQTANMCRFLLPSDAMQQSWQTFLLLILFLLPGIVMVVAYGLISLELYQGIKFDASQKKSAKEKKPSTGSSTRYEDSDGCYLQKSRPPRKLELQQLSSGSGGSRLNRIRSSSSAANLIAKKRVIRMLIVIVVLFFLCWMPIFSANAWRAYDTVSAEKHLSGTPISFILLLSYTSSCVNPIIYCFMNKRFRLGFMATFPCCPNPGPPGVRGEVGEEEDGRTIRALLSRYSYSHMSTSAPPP
Put plainly: Inhibition of binding of [125I]-BH-CCK-8 to isolated rat pancreatic acini. The conditions noted are these: for IC50: 30 minutes at 37° C., at least 3 experiments, read-out: IC50, inhibition of binding of [125I]-BH-CCK-8 to isolated rat pancreatic acini. As for the experimental part: The pancreatic acini obtained from the outbred male rat pancreas of the Sprague Dawley strain, were incubated in the presence of radioactive tracers and the compound studied for 30 minutes at 37° C. After having discarded the supernatant, the radioactivity associated with the pellet was determined with a liquid scintillator. The specific binding was determined as the difference between the binding in the absence and in the presence of CCK-8, 1.10^−6M. […] The values of IC50 reported were calculated with the […] of a set of at least 3 experiences for each compound studied.

Assay [1] addresses T2, CCK-2 receptor (Cavia porcellus, UniProt H0VZC5).
T2 construct: The incubation of the cerebral membranes together with the radioactive tracers and the compounds under study; from tissue; host or cells: cerebral cortex membranes of male albino Hartley guinea pigs
T2 sequence (H0VZC5 1-426): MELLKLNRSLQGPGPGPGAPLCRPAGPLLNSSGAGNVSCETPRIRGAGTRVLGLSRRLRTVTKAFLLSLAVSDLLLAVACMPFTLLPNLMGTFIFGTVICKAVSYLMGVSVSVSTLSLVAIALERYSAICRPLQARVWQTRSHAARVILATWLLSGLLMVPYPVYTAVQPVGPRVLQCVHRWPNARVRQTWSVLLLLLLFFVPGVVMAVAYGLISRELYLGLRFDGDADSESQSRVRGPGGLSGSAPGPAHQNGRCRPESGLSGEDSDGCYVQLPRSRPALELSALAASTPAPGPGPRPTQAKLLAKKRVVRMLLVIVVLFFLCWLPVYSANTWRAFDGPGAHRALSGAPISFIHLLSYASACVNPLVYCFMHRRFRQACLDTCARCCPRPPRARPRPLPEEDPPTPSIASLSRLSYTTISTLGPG
Put plainly: Inhibition of the binding of [125I]-BH-CCK-8 to the cortical membrane of guinea pigs. The conditions noted are these: 120 minutes at 25° C.; 25 pM marked binder; at least 3 tests. Also on record: species or system guinea pig. As for the experimental part:
(§1) For this purpose binding tests were performed on cerebral cortex of male albino guinea pigs outbred from the Hartley strain, using as marked binder the [^125I]-BH-CCK-8 sulphate, according to the procedure described by Makovec F. [J. Med. Chem. 35, (1992),28].
(§2) The incubation of the cerebral membranes together with the radioactive tracers and the compounds under study was effected on multi-well plates for 120 minutes at 25° C. Each well contained membrane corresponding to about 0.5 mg of proteins/ml and 25 pM of marked binder in a total volume of 250 micro litres. The specific binding was determined as the difference between the binding in the absence and in the presence of CCK-8, 1.10^−6M. At the end of the incubation a rapid filtration of the plate was performed under vacuum and the radioactivity of the individual filters extracted from the wells was measured with a γ-emission counter. The results obtained are shown in Table 3, in which the tested compounds are indicated, the IC50 calculated with the regression method on a set of at least 3 tests for each compound studied and an index derived from the ratio of the affinity obtained for the two types of receptor CCK-2 and CCK-1.

In assay [2] the test system is CCK-2 receptor. The assay is described as above. Also on record: species or system guinea pig. The conditions noted are these: IC50 CCK-2 (guinea pig cortex) / IC50 CCK-1 (rat pancreatic acini, Table 2). As for the experimental part:
as §1, §2

What is called IC50 is the midpoint of a concentration-inhibition curve. On to `O=C(Nc1ccccc1C(=O)NC(Cc1cccc(Cl)c1)C(=O)O)c1cc2ccccc2[nH]1` (stereo not shown) [Compound 14], for which the IC50 at CCK-1 receptors turned out to be 280 nM.
As for `O=C(Nc1ccccc1C(=O)N[C@H](Cc1ccccc1)C(=O)O)c1cc2ccccc2[nH]1` [Compound 2, 2 (R)-{2-[(1H-indol-2-carbonyl)amino]-benzoylamino}-3-phenyl-propionic acid], the IC50 at CCK-1 receptors is 110 nM.
On the same count and under the same terms, the result for `O=C(Nc1ccccc1C(=O)NC(Cc1ccc(F)cc1)C(=O)O)c1cc2ccccc2[nH]1` (stereo not shown) [Compound 19] reads 180 nM; that for `O=C(Nc1ccccc1C(=O)NC(Cc1ccccc1)C(=O)O)c1cc2ccccc2[nH]1` (racemic) [Compound 1, 2 (R,S)-{2-[(1H-indol-2-carbonil)amino]-benzoilamino}-3-phnyl-propionic acid], 240 nM.
Consider `Cc1ccccc1CCC(NC(=O)c1ccccc1NC(=O)c1cc2ccccc2n1C)C(=O)O` (stereo not shown) [Compound 27], for which the IC50 at CCK-1 receptors is 30 nM.
The same measure, in the same setting: the result for `O=C(Nc1ccc(Cl)cc1C(=O)NC(Cc1ccccc1)C(=O)O)c1cc2ccccc2[nH]1` (stereo not shown) [Compound 4] reads 410 nM.
Still for that read-out and setting: then `O=C(Nc1ccccc1C(=O)NC(CCCc1ccccc1)C(=O)O)c1cc2ccccc2[nH]1` (stereo not shown) [Compound 24], with 90 nM; and `CC(C)CCC(NC(=O)c1ccccc1NC(=O)c1cc2ccccc2[nH]1)C(=O)O` (stereo not shown) [Compound 43], with 80 nM.
On to `CC(C)C(NC(=O)c1ccccc1NC(=O)c1cc2ccccc2[nH]1)C(=O)O` (stereo not shown) [Compound 41], for which the IC50 at CCK-1 receptors came out at 200 nM; on CCK-2 receptor [1], 27.4 µM. Also, the “index derived from the ratio of the affinity obtained for the two types of receptor CCK-2 and CCK-1” value (“index derived from the ratio” for short) in the assay on CCK-2 receptor [2] came to 137.
In the case of `O=C(Nc1ccccc1C(=O)NC(Cc1ccccc1)C(=O)O)c1cc2ccc(F)cc2[nH]1` (stereo not shown) [Compound 7], the IC50 on CCK-1 receptors was determined as 160 nM.
The same measure, in the same setting: then `O=C(Nc1ccccc1C(=O)NC(CCc1ccc([N+](=O)[O-])cc1)C(=O)O)c1cc2ccccc2[nH]1` (stereo not shown) [Compound 29], with 120 nM.
As to `Cc1ccccc1CC(NC(=O)c1ccccc1NC(=O)c1cc2ccccc2[nH]1)C(=O)O` (stereo not shown) [Compound 11], the IC50 at CCK-1 receptors was 160 nM.
Still for that read-out and setting: then `CCC(NC(=O)c1ccccc1NC(=O)c1cc2ccccc2n1C)C(=O)O` (stereo not shown) [Compound 35], with 3080 nM.
For `CCCCCC(NC(=O)c1ccccc1NC(=O)c1cc2ccccc2[nH]1)C(=O)O` (stereo not shown) [Compound 38], the values for the IC50 on CCK-1 receptors and at CCK-2 receptor [1] were 10 nM and over 30 µM, respectively. The “index derived from the ratio” value in the assay with CCK-2 receptor [2] was over 3000.
Consider `CC(C)CCCCC(NC(=O)c1ccccc1NC(=O)c1cc2ccccc2[nH]1)C(=O)O` (stereo not shown) [Compound 45], for which the IC50 on CCK-1 receptors was determined as 140 nM.
The same measure, in the same setting: the result for `O=C(Nc1ccccc1C(=O)NC(CSC12CC3CC(CC(C3)C1)C2)C(=O)O)c1cc2ccccc2[nH]1` (stereo not shown) [Compound 53] reads 30 nM.
Same read-out and setting: then `O=C(Nc1ccccc1C(=O)NC(Cc1ccccc1)C(=O)O)c1cc2ccccc2o1` (stereo not shown) [Compound 9], with 520 nM; and `CSCCC(NC(=O)c1ccccc1NC(=O)c1cc2ccccc2[nH]1)C(=O)O` (stereo not shown) [Compound 51], with 40 nM; and `CC(C)CC(NC(=O)c1ccccc1NC(=O)c1cc2ccccc2[nH]1)C(=O)O` (stereo not shown) [Compound 42], with 60 nM.
Turning to `O=C(Nc1ccccc1C(=O)NC(CCCC1CCCCC1)C(=O)O)c1cc2ccccc2[nH]1` (stereo not shown) [Compound 50], on CCK-1 receptors, the IC50 came out at 170 nM.
The same measure, in the same setting: then `O=C(Nc1ccccc1C(=O)NC(CCC1CCCCC1)C(=O)O)c1cc2ccccc2[nH]1` (stereo not shown) [Compound 49], with 40 nM; and `O=C(Nc1ccccc1C(=O)NC(Cc1ccccc1[N+](=O)[O-])C(=O)O)c1cc2ccccc2[nH]1` (stereo not shown) [Compound 17], with 160 nM.
Still for that read-out and setting: the result for `CCCC(NC(=O)c1ccccc1NC(=O)c1cc2ccccc2n1C)C(=O)O` (stereo not shown) [Compound 36] reads 210 nM.
Take `O=C(Nc1ccccc1C(=O)NC(CC1CCCCC1)C(=O)O)c1cc2ccccc2[nH]1` (stereo not shown) [Compound 48]: the IC50 is 20 nM on CCK-1 receptors and 1.22 µM at CCK-2 receptor [1]. Further, the “index derived from the ratio” value in the assay with CCK-2 receptor [2] worked out at 61.
For the molecule `CCCCC(NC(=O)c1ccccc1NC(=O)c1cc2ccccc2n1C)C(=O)O` (stereo not shown) [Compound 37], the IC50 on CCK-1 receptors came to 170 nM.
Same read-out and setting: then `O=C(Nc1ccccc1C(=O)NC(Cc1c(Cl)cccc1Cl)C(=O)O)c1cc2ccccc2[nH]1` (stereo not shown) [Compound 15], with 1410 nM.
The same measure, in the same setting: the result for `CC(NC(=O)c1ccccc1NC(=O)c1cc2ccccc2[nH]1)C(=O)O` (stereo not shown) [Compound 34] reads 1960 nM.
With `O=C(Nc1ccccc1C(=O)NC(Cc1ccccc1)C(=O)O)c1cc2cc(F)ccc2[nH]1` (stereo not shown) [Compound 6], the IC50 at CCK-1 receptors was found to be 60 nM; on CCK-2 receptor [1], 10.6 µM. Also, the “index derived from the ratio” value in the assay with CCK-2 receptor [2] is on record as 176.6.
On to `O=C(NC(Cc1ccccc1)C(=O)O)c1ccccc1NC(=O)c1c[nH]c2ccccc12` (stereo not shown) [Compound 55], for which the 50% inhibitory concentration (IC50) on CCK-1 receptors amounted to 1950 nM.
Same read-out and setting: then `O=C(Nc1ccccc1C(=O)NC(CSc1ccccc1)C(=O)O)c1cc2ccccc2[nH]1` (stereo not shown) [Compound 52], with 620 nM.
On the same count and under the same terms, the result for `O=C(Nc1ccccc1C(=O)NC(C(=O)O)c1ccccc1)c1cc2ccccc2[nH]1` (stereo not shown) [Compound 33] reads 260 nM.
On the same count and under the same terms, the result for `CC(C)CCCC(NC(=O)c1ccccc1NC(=O)c1cc2ccccc2[nH]1)C(=O)O` (stereo not shown) [Compound 44] reads 40 nM; that for `COc1cccc(CC(NC(=O)c2ccccc2NC(=O)c2cc3ccccc3[nH]2)C(=O)O)c1` (stereo not shown) [Compound 16], 240 nM; that for `Cn1c(C(=O)Nc2ccccc2C(=O)NC(Cc2ccccc2)C(=O)O)cc2ccccc21` (stereo not shown) [Compound 5], 170 nM.
`O=C(Nc1ccccc1C(=O)NC(CCc1ccccc1[N+](=O)[O-])C(=O)O)c1cc2ccccc2[nH]1` (stereo not shown) [Compound 28]: the IC50 on CCK-1 receptors worked out at 120 nM.
Still for that read-out and setting: then `O=C(Nc1ccccc1C(=O)NC(Cc1ccccc1)C(=O)O)c1cc2cccc(F)c2[nH]1` (stereo not shown) [Compound 8], with 90 nM.
Take `COc1ccccc1CCC(NC(=O)c1ccccc1NC(=O)c1cc2cc(F)ccc2[nH]1)C(=O)O` (stereo not shown) [Compound 32]: the IC50 on CCK-1 receptors amounted to 9 nM; on CCK-2 receptor [1] it was 5.68 µM. Besides, the “affinity for the CCK-1 receptors of the pancreatic acini of rat, in words” value at CCK-1 receptors (summary of Table 2) is “nanomolar level”. Also, the “index derived from the ratio” value in the assay on CCK-2 receptor [2] is 631.1.
As to `CCCCCCCC(NC(=O)c1ccccc1NC(=O)c1cc2ccccc2[nH]1)C(=O)O` (stereo not shown) [Compound 40], the half-inhibitory concentration (IC50) at CCK-1 receptors turned out to be 240 nM.
For `Cc1ccc(CC(NC(=O)c2ccccc2NC(=O)c2cc3ccccc3[nH]2)C(=O)O)cc1` (stereo not shown) [Compound 12], the IC50 at CCK-1 receptors was determined as 370 nM.
Still for that read-out and setting: the result for `O=C(Nc1ccccc1C(=O)NC(Cc1ccccc1)C(=O)O)c1cc2ccccc2s1` (stereo not shown) [Compound 10] reads 780 nM.
`O=C(Nc1ccccc1C(=O)NC(Cc1ccc([N+](=O)[O-])cc1)C(=O)O)c1cc2ccccc2[nH]1` (stereo not shown) [Compound 18]: the IC50 on CCK-1 receptors was determined as 430 nM.
Same read-out and setting: the result for `O=C(Nc1ccccc1C(=O)NC(Cc1ccccc1Cl)C(=O)O)c1cc2ccccc2[nH]1` (stereo not shown) [Compound 13] reads 270 nM.
The same measure, in the same setting: then `O=C(Nc1ccccc1C(=O)N[C@@H](Cc1ccccc1)C(=O)O)c1cc2ccccc2[nH]1` [Compound 3, 2(S)-{2-[(1H-indol-2-carbonyl)amino]-benzoylamino}-3-phenyl-propionic acid], with 7130 nM; and `O=C(Nc1ccccc1C(=O)N[C@@H](CCc1ccccc1)C(=O)O)c1cc2ccccc2[nH]1` [Compound 22], with 190 nM.
